{"source": "patent US7754445B2", "about": "“Method for the enzymatic production of a curing agent and its fluid state” (TMI Europe, priority 2001, dated 2010)", "assay": "monitoring the stability of the solution (hypothiocyanite concentration in water leaving the reactor)", "type": "physicochemical", "excerpt": "The hypothiocyanite ions (OSCN^−) are able to react with the sulfhydryl groups of a 5,5′-dithiobis (2-nitrobenzoic acid) molecule which has previously been reduced in the presence of an excess of sodium borohydride.\nThis reduced molecule absorbs light at a wavelength of 412 nm.\nWhen the hypothiocyanite ions (OSCN^−) oxidize the sulfhydryl groups, the absorbance at 412 nm decreases in proportion to the quantity of ions which are present in the sample, thereby enabling them to be quantified.\nThe methods described above are used to monitor the change in the concentration of hypothiocyanite ion, i.e. OSCN^−, in solutions leaving the reactor, the results of which are obtained are illustrated in FIGS. 3 and 4, which depict the curve for the changes in the concentration of hypothiocyanite ion, OSCN^−, in the water leaving the reactor over a period of 1 day (FIGS. 4) and 4 days (FIG. 3).", "data": [{"compound": "N#CSO", "note": "[OSCN^−, hypothiocyanite ion]", "values": [{"measurement": "concentration of OSCN^−", "setting": "after 10 hours (FIG. 4)", "result": 500000, "unit": "µM"}, {"measurement": "fall in concentration of OSCN^−", "setting": "after 20 hours (FIG. 4)", "result": 50, "unit": "%"}, {"measurement": "residual concentration of hypothiocyanite ion, relative to the initial concentration", "setting": "after 80 hours (FIG. 3)", "result": 16, "unit": "%"}, {"measurement": "concentration of OSCN^−", "setting": "initial, solution leaving the reactor (FIG. 4)", "result": 600000, "unit": "µM"}]}]}
